# From US8389794B2, “Transgenic pig as a model of Alzheimer's disease” (Aarhus Universitet, priority 2007, dated 2013)
# Where a SMILES comes first, the peptide text is derived from it. [ ]: non-standard residue; d: D form. Nle = CCCC[C@H](N)C(=O)O
# Columns and labels:
# APP695 = test: Western blot (antibody 6E10) of fibroblasts grown with protease inhibitors; assay type: cell-based, Göttingen minipig
# Procedure: A Western blot using a commercial anti-APP antibody (6E10), […], was performed according to the manufacturer's recommendations. The Western blot was performed on extracts from fibroblast cells of a transgenic pig (lanes 1 and 2) and on extracts from fibroblast cells of a wt pig (lanes 3 and 4), see FIG. 10. In lane 1 the fibroblasts have been treated with the protease inhibitor ALLN, whereas the fibroblasts of lane 2 have not received treatment. […] In contrast, the lower molecular weight products are not present in similar amounts as in lane 2. Lanes 3 and 4 contain extracts of fibroblasts from wt pigs and no effect of ALLN treatment is evident in comparison to the extracts of transgenic pigs.
# a) Non-transgenic donor fibroblasts (74114 cells) and fibroblasts from transgenic minipiglet No. 47 were grown to 80% confluence in a 75 cm2 flask. The cells from each flask were resuspended in 24 ml medium and transferred to a 6-well plate (TPP, Schwitzerland) with 2.5 ml of the cell suspension in each well. Medium was changed the following day with 2 ml fresh medium containing the chemical at the indicated concentration were added to the wells of both plates: well No. 1, 5 μM Lactacystin; well No. 2, 20 μM Leupeptin; well No. 3, 20 μl DMSO; well No. 4, 20 μM ALLN; well No. 5, 2.5 mM NH4Cl. After 6 hrs incubation the cells from each well were harvested and transferred to an 1.5 ml Eppendorf tube. 30 μl ddH20, 2 μl reducing agent and 8 μl loading buffer (Fermentas) were added, the tubes were placed in boiling water for 5 min. and spun at full speed for 1 min. in an Eppendorf centrifuge. 15 μl of each sample were loaded on a 4-15% polyacrylamid gel (BioRad), run at 45 mAmp for 90 min. Transfer to PVDF membrane (GE Healthcare) was done at 75 volt for 30 min., and the membrane was stained with anti-human APP monoclonal antibody 6E10 (SIGNET) at dilution 1:1000, and as secondary antibody polyclonal goat anti-mouse immunoglobulines/HRP (Dako Cytomation) at dilution 1:2000. b) Extraction of protein from brain tissue was done with 100-200 mg flash frozen cortical tissue homogenized in a tissue-grinder with 3 ml lysis buffer (Tris-HCl 50 mM, EDTA 10 mM, SDS 1%, Triton X-100 0.5%, ⅓ Protease Inhibitor Cocktail Tablet (Roche), pH 8.0). The solution was transferred to an Eppendorf tube (1 ml), centrifuged at 12,000 rpm for 2 min at 4° C. and supernatant transferred to a new tube. After vortexing the tube was frozen in dry ice for 3 min, thawed at 37° C. for 3 min, and this freeze/thaw step was repeated 3 times. Finally, the solution was centrifuged at 14,000 rpm (4° C.) for 10 min, the pellet discarded and the protein concentration of the supernatant determined. 8 μg protein extract was loaded in each lane of the polyacrylamid gel. Western blotting was done as described above. […]
# β-secretase = target: T1, β-secretase (Mus musculus, UniProt P56818); details: oral administration, APP transgenic mice; cited from earlier work
# T1 construct: host or cells: brain of APP transgenic mice (in vivo, oral dosing)
# PDAPP transgenic mouse = details: subcutaneous immunization, 100 ug in complete Freund adjuvant; cited from earlier work
# T1 sequence (P56818 46-501): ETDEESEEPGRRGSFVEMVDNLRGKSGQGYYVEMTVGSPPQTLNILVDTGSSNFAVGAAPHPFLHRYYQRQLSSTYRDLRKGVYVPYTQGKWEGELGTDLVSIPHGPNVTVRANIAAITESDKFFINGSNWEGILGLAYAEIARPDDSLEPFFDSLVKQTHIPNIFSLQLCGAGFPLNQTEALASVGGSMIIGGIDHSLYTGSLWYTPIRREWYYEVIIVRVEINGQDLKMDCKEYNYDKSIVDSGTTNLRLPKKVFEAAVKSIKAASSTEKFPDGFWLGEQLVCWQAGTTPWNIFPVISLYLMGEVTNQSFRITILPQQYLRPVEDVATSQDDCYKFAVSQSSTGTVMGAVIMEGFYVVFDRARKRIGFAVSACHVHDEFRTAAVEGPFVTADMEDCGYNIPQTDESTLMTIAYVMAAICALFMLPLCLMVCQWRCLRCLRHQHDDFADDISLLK
compound,measurement,setting,value
CCCC[C@@H](C=O)NC(=O)[C@H](CC(C)C)NC(=O)[C@H](CC(C)C)NC(C)=O [ALLN] (Ac-Leu-Leu-[Nle]-aldehyde),"difference in intensity of the APP695 bands, transgenic vs non-transgenic fibroblasts","APP695; 20 μM ALLN in medium, fibroblasts of transgenic piglet No. 47 vs donor cells 74114",becomes more pronounced
same,bands of lower molecular weight than mutated APP,APP695; ALLN treated fibroblasts of transgenic pig vs untreated,increased in intensity
CCNc1cc(C(=O)N[C@@H](Cc2ccccc2)[C@H](O)CNCc2cccc(C(F)(F)F)c2)c(F)c(N2CCCCS2(=O)=O)c1 [GSK188909],brain Abeta,β-secretase,significant lowering
Cl.N [ammonium chloride],"difference in intensity of the APP695 bands, transgenic vs non-transgenic fibroblasts","APP695; ammonium chloride in medium (2.5 mM NH4Cl per method), data not shown",no such effect
CC(=O)N[C@@H](CC(C)C)C(=O)N[C@@H](CC(C)C)C(=O)N[C@H](C=O)CCCNC(=N)N [leupeptin],"difference in intensity of the APP695 bands, transgenic vs non-transgenic fibroblasts","APP695; leupeptin in medium (20 μM per method), data not shown",no such effect
Abeta 1-42 antigen: Abeta 1-42 antigen in complete Freund adjuvant for active immunization,accumulation of plaques in the brain,PDAPP transgenic mouse,reduces the accumulation of plaques
